Results reported in the supplement of paper PMC11061612.

Key:
MG-63 (Osteosarcoma) [1] = assay: Bliss excess, mean over the matrix (fraction); higher = more synergy
Summary of the method: (§1)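 Cell lines grown in DMEM/F12 or RPMI with 10% FBS were plated in 1536-well plates and held 24 hours at 37°C, 5% CO2 before 72 hours of exposure to two-drug dose matrices, with DMSO typically at 0.2%. CellTiter-Glo 2.0 luminescence gave viability, which was converted to inhibition. Vehicle wells were set to 0 and blank wells to 1. Combination Emax is the second-highest inhibition in the matrix, and Bliss excess is the observed combination effect minus the expected EA + EB − EA·EB, where EA and EB are the single-agent effects.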

[2] = tested on: BC-1 (B-Cell Non-Hodgkin's Lymphoma); assay: as above
Summary of the method: as §1

[3] = tested on: KNS-62 (Squamous Cell Lung Carcinoma); assay: as above
Summary of the method: as §1

[4] = tested on: RPMI-8402 (T-Lymphoblastic Leukemia); assay: as above
Summary of the method: as §1

SK-MEL-24 (Melanoma) [5] = assay: as above
Summary of the method: as §1

[6] = tested on: SW1463 (Colorectal Carcinoma); assay: as above
Summary of the method: as §1

GCIY (Gastric Carcinoma) [7] = assay: as above
Summary of the method: as §1

A375 (Melanoma) [8] = assay: as above
Summary of the method: as §1

[9] = tested on: L-363 (Plasma Cell Myeloma); assay: as above
Summary of the method: as §1

[10] = tested on: SBC-3 (Small Cell Lung Carcinoma); assay: as above
Summary of the method: as §1

[11] = tested on: NCI-H2023 (Non-Small Cell Lung Carcinoma); assay: as above
Summary of the method: as §1

[12] = tested on: NCI-H1435 (Non-Small Cell Lung Carcinoma); assay: as above
Summary of the method: as §1

[13] = tested on: MRK-nu-1 (Breast Carcinoma); assay: as above
Summary of the method: as §1

[14] = tested on: OVKATE (Ovarian Carcinoma); assay: as above
Summary of the method: as §1

[15] = tested on: MDA-MB-175-VII (Breast Carcinoma); assay: as above
Summary of the method: as §1

[16] = tested on: CAL-85-1 (Breast Carcinoma); assay: as above
Summary of the method: as §1

C32 (Melanoma) [17] = assay: as above
Summary of the method: as §1

[18] = tested on: COR-L105 (Lung Adenocarcinoma); assay: as above
Summary of the method: as §1

[19] = tested on: NTERA-2-cl-D1 (Other Solid Carcinomas); assay: as above
Summary of the method: as §1

[20] = tested on: NCI-H2009 (Lung Adenocarcinoma); assay: as above
Summary of the method: as §1

[21] = tested on: NCI-H835 (Other Solid Carcinomas); assay: as above
Summary of the method: as §1

NCI-H2452 (Mesothelioma) [22] = assay: as above
Summary of the method: as §1

[23] = tested on: NCI-H1648 (Lung Adenocarcinoma); assay: as above
Summary of the method: as §1

MG-63 (Osteosarcoma) [24] = assay: combination Emax (second highest fraction inhibited in the dose matrix, 72 h); higher = more inhibition; extreme values may be limits of the assay
Summary of the method: as §1

[25] = tested on: BC-1 (B-Cell Non-Hodgkin's Lymphoma); assay: as above
Summary of the method: as §1

[26] = tested on: KNS-62 (Squamous Cell Lung Carcinoma); assay: as above
Summary of the method: as §1

[27] = tested on: RPMI-8402 (T-Lymphoblastic Leukemia); assay: as above
Summary of the method: as §1

SK-MEL-24 (Melanoma) [28] = assay: as above
Summary of the method: as §1

[29] = tested on: SW1463 (Colorectal Carcinoma); assay: as above
Summary of the method: as §1

GCIY (Gastric Carcinoma) [30] = assay: as above
Summary of the method: as §1

A375 (Melanoma) [31] = assay: as above
Summary of the method: as §1

[32] = tested on: L-363 (Plasma Cell Myeloma); assay: as above
Summary of the method: as §1

[33] = tested on: SBC-3 (Small Cell Lung Carcinoma); assay: as above
Summary of the method: as §1

[34] = tested on: NCI-H2023 (Non-Small Cell Lung Carcinoma); assay: as above
Summary of the method: as §1

[35] = tested on: NCI-H1435 (Non-Small Cell Lung Carcinoma); assay: as above
Summary of the method: as §1

[36] = tested on: MRK-nu-1 (Breast Carcinoma); assay: as above
Summary of the method: as §1

[37] = tested on: OVKATE (Ovarian Carcinoma); assay: as above
Summary of the method: as §1

[38] = tested on: MDA-MB-175-VII (Breast Carcinoma); assay: as above
Summary of the method: as §1

[39] = tested on: CAL-85-1 (Breast Carcinoma); assay: as above
Summary of the method: as §1

C32 (Melanoma) [40] = assay: as above
Summary of the method: as §1

[41] = tested on: COR-L105 (Lung Adenocarcinoma); assay: as above
Summary of the method: as §1

[42] = tested on: NTERA-2-cl-D1 (Other Solid Carcinomas); assay: as above
Summary of the method: as §1

[43] = tested on: NCI-H2009 (Lung Adenocarcinoma); assay: as above
Summary of the method: as §1

[44] = tested on: NCI-H835 (Other Solid Carcinomas); assay: as above
Summary of the method: as §1

NCI-H2452 (Mesothelioma) [45] = assay: as above
Summary of the method: as §1

[46] = tested on: NCI-H1648 (Lung Adenocarcinoma); assay: as above
Summary of the method: as §1
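For Bliss excess, mean over the matrix in this document: after 72 h of two-drug dosing.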

SMILES: Cc1c2c(nn1C)CSCc1cc(n(C)n1)CSc1cc(c3ccccc3c1)OCCCc1c(C(=O)O)n(C)c3c-2c(Cl)ccc13 [AZD5991] + CC(=O)O[C@H]1C(=O)[C@@]2(C)[C@H]([C@H](OC(=O)c3ccccc3)[C@]3(O)C[C@H](OC(=O)[C@H](O)[C@@H](NC(=O)c4ccccc4)c4ccccc4)C(C)=C1C3(C)C)[C@]1(OC(C)=O)CO[C@@H]1C[C@@H]2O [Paclitaxel] (first compound max 1 µM, 7x7, partner max 3 µM)
- Bliss excess (MG-63 (Osteosarcoma) [1]): -0.0715
- Bliss excess [2]: -0.0329
- Bliss excess [3]: -0.0159
- Bliss excess [4]: 0.0139
- Bliss excess (SK-MEL-24 (Melanoma) [5]): -0.0449
- Bliss excess [6]: 0.0763
- Bliss excess (GCIY (Gastric Carcinoma) [7]): -0.0262
- Bliss excess (A375 (Melanoma) [8]): -0.0149
- Bliss excess [9]: -0.0043
- Bliss excess [10]: -0.0404
- Bliss excess [11]: 0.0058
- Bliss excess [12]: 0.0254
- Bliss excess [13]: 0.0286
- Bliss excess [14]: -0.0107
- Bliss excess [15]: 0.102
- Bliss excess [16]: -0.0082
- Bliss excess (C32 (Melanoma) [17]): 0.0017
- Bliss excess [18]: -0.0367
- Bliss excess [19]: 0.111
- Bliss excess [20]: 0.0027
- Bliss excess [21]: 0.0252
- Bliss excess (NCI-H2452 (Mesothelioma) [22]): 0.0378
- Bliss excess [23]: -0.0144
- combination Emax (MG-63 (Osteosarcoma) [24]): 0.88
- combination Emax [25]: 1
- combination Emax [26]: 0.6
- combination Emax [27]: 1
- combination Emax (SK-MEL-24 (Melanoma) [28]): 0.692
- combination Emax [29]: 0.527
- combination Emax (GCIY (Gastric Carcinoma) [30]): 0.686
- combination Emax (A375 (Melanoma) [31]): 0.787
- combination Emax [32]: 1
- combination Emax [33]: 0.952
- combination Emax [34]: 0.537
- combination Emax [35]: 0.219
- combination Emax [36]: 1
- combination Emax [37]: 0.217
- combination Emax [38]: 0.505
- combination Emax [39]: 0.806
- combination Emax (C32 (Melanoma) [40]): 0.654
- combination Emax [41]: 0.183
- combination Emax [42]: 0.614
- combination Emax [43]: 0.715
- combination Emax [44]: 0.453
- combination Emax (NCI-H2452 (Mesothelioma) [45]): 0.838
- combination Emax [46]: 0.929

SMILES: C[C@@H]1COCCN1c1cc(C2([S@](C)(=N)=O)CC2)nc(-c2ccnc3[nH]ccc23)n1 [AZD6738] + Nc1ccn([C@@H]2O[C@H](CO)[C@@H](O)C2(F)F)c(=O)n1 [Gemcitabine] (first compound max 10 µM, 7x7, partner max 0.3 µM)
- Bliss excess (MG-63 (Osteosarcoma) [1]): 0.17
- Bliss excess [2]: 0.0099
- Bliss excess [3]: 0.0023
- Bliss excess [4]: 0.0319
- Bliss excess (SK-MEL-24 (Melanoma) [5]): 0.0379
- Bliss excess [6]: -0.0128
- Bliss excess (GCIY (Gastric Carcinoma) [7]): -0.0362
- Bliss excess (A375 (Melanoma) [8]): 0.0602
- Bliss excess [9]: 0.0716
- Bliss excess [10]: 0.0306
- Bliss excess [11]: 0.0123
- Bliss excess [12]: 0.0799
- Bliss excess [13]: -0.0532
- Bliss excess [14]: -0.0172
- Bliss excess [15]: -0.0368
- Bliss excess [16]: 0.0227
- Bliss excess (C32 (Melanoma) [17]): -0.0247
- Bliss excess [18]: 0.003
- Bliss excess [19]: -0.0019
- Bliss excess [20]: 0.0954
- Bliss excess [21]: 0.0442
- Bliss excess (NCI-H2452 (Mesothelioma) [22]): 0.0333
- Bliss excess [23]: 0.0542
- combination Emax (MG-63 (Osteosarcoma) [24]): 1
- combination Emax [25]: 0.985
- combination Emax [26]: 0.665
- combination Emax [27]: 1
- combination Emax (SK-MEL-24 (Melanoma) [28]): 0.841
- combination Emax [29]: 0.792
- combination Emax (GCIY (Gastric Carcinoma) [30]): 0.774
- combination Emax (A375 (Melanoma) [31]): 0.991
- combination Emax [32]: 0.941
- combination Emax [33]: 0.97
- combination Emax [34]: 0.684
- combination Emax [35]: 0.411
- combination Emax [36]: 0.781
- combination Emax [37]: 0.345
- combination Emax [38]: 0.529
- combination Emax [39]: 0.726
- combination Emax (C32 (Melanoma) [40]): 0.703
- combination Emax [41]: 0.543
- combination Emax [42]: 0.592
- combination Emax [43]: 0.789
- combination Emax [44]: 0.446
- combination Emax (NCI-H2452 (Mesothelioma) [45]): 0.763
- combination Emax [46]: 0.725

SMILES: O=C(c1cc(Cc2n[nH]c(=O)c3ccccc23)ccc1F)N1CCN(C(=O)C2CC2)CC1 [Olaparib] + Cc1c2c(nn1C)CSCc1cc(n(C)n1)CSc1cc(c3ccccc3c1)OCCCc1c(C(=O)O)n(C)c3c-2c(Cl)ccc13 [AZD5991] (first compound max 10 µM, 7x7, partner max 1 µM)
- Bliss excess (MG-63 (Osteosarcoma) [1]): -0.0465
- Bliss excess [2]: 0.0737
- Bliss excess [3]: -0.0396
- Bliss excess [4]: -0.0419
- Bliss excess (SK-MEL-24 (Melanoma) [5]): -0.0478
- Bliss excess [6]: -0.0325
- Bliss excess (GCIY (Gastric Carcinoma) [7]): -0.041
- Bliss excess (A375 (Melanoma) [8]): -0.0264
- Bliss excess [9]: 0.0277
- Bliss excess [10]: -0.0134
- Bliss excess [11]: -0.0502
- Bliss excess [12]: -0.0055
- Bliss excess [13]: 0.0135
- Bliss excess [14]: -0.0525
- Bliss excess [15]: -0.0155
- Bliss excess [16]: -0.0484
- Bliss excess (C32 (Melanoma) [17]): -0.0585
- Bliss excess [18]: -0.0494
- Bliss excess [19]: 0.0289
- Bliss excess [20]: -0.0445
- Bliss excess [21]: -0.0467
- Bliss excess (NCI-H2452 (Mesothelioma) [22]): -0.0199
- Bliss excess [23]: -0.0083
- combination Emax (MG-63 (Osteosarcoma) [24]): 0.216
- combination Emax [25]: 1
- combination Emax [26]: 0.128
- combination Emax [27]: 0.857
- combination Emax (SK-MEL-24 (Melanoma) [28]): 0.0746
- combination Emax [29]: 0.192
- combination Emax (GCIY (Gastric Carcinoma) [30]): 0.181
- combination Emax (A375 (Melanoma) [31]): 0.163
- combination Emax [32]: 0.989
- combination Emax [33]: 0.523
- combination Emax [34]: 0.12
- combination Emax [35]: 0.117
- combination Emax [36]: 1
- combination Emax [37]: 0.0781
- combination Emax [38]: 0.281
- combination Emax [39]: 0.168
- combination Emax (C32 (Melanoma) [40]): 0.0885
- combination Emax [41]: 0.0887
- combination Emax [42]: 0.531
- combination Emax [43]: 0.107
- combination Emax [44]: 0.149
- combination Emax (NCI-H2452 (Mesothelioma) [45]): 0.165
- combination Emax [46]: 0.384
